Experiments:
[1] = Ready Biodegradability - CO2 Evolution Test OECD 301B
Method: The biodegradability of the branched aldehyde intermediates of Example 2 (4-ethyl-2-methyloctanal) and Example 25 (2,4-diethyl-2-octenal) were determined by the Ready Biodegradability—CO2 Evolution Test—Degradation of test compound according to OECD Guidelines for Testing of Chemicals CO2 Evolution Test 301B.

Candida albicans = assay: Antimicrobial screening, microplate dilution assay (MIC) and agar spotting (MLC); format: cell-based; details: Candida albicans (yeast); for MIC < 10%: lowest concentration with growth less than 10% of control; for MIC < 10% / MIC < 50%: approx. 24 h, 32° C.; for MIC < 50%: lowest concentration with growth less than 50% of control; for MLC: minimum lethal concentration, absence of growth on agar
Method: (§1) The minimum inhibitory concentration (MIC) and the minimum lethal concentration (MLC) of the chemicals were determined using a microplate dilution assay. Quats were provided as aqueous solutions, while Triclosan and Chloroxylenol were provide as powders which were first dissolved at 5 weight percent in absolute ethanol. A two-fold serial dilution series of each test chemical was prepared in Trypticase Soy Broth at 20% of the standard concentration (TSB20) and in Sabouraud Dextrose Broth at 20% of the standard concentration (SDB20) in 96-well micro-titer plates. A total of 10 dilutions were prepared and four replicate tests were performed for each dilution. […] Control solutions containing only media were included for each plate. Suspensions of Staphylococcus aureus, Escherichia coli, and Candida albicans were prepared from one-day old agar plate cultures in Butterfields Phosphate Diluent to a concentration of approximately 10^7 to 10^8 cells per milliliter. Each test well was inoculated with the diluted culture suspensions at a concentration of 10^3 to 10^4 cells per well and then incubated at 32° C. with shaking at 150 rpm for approximately 24 hours, after which the optical density of each well was determined spectrophotometrically at 600 nm. Wells containing uninoculated media without test chemical were included in each plate as negative controls and, following inoculation, as positive controls.
(§2) Selected wells at or below the MIC were tested for MLC by spotting three microliters from each replicate well onto Trypticase Soy agar for S. aureus and E. coli, or Sabouraud Dextrose agar for C. albicans.

Staphylococcus aureus = assay: as above; format: cell-based; details: Staphylococcus aureus (Gram pos bacteria); for MIC < 10%: lowest concentration with growth less than 10% of control; for MIC < 10% / MIC < 50%: approx. 24 h, 32° C.; for MIC < 50%: lowest concentration with growth less than 50% of control; for MLC: minimum lethal concentration, absence of growth on agar
Method: as §1, §2

Escherichia coli = assay: as above; format: cell-based; details: Escherichia coli (Gram neg bacteria); for MIC < 10%: lowest concentration with growth less than 10% of control; for MIC < 10% / MIC < 50%: approx. 24 h, 32° C.; for MIC < 50%: lowest concentration with growth less than 50% of control; for MLC: minimum lethal concentration, absence of growth on agar
Method: as §1, §2

CCCCC(CC)CC(C=O)CC (stereo not drawn) [Example 25, 2,4-diethyloctanal]
Biodegradation (%) ([1]; day 0): 0% | Biodegradation (%) ([1]; day 2): 0% | Biodegradation (%) ([1]; day 6): 0% | Biodegradation (%) ([1]; day 7): 9% | Biodegradation (%) ([1]; day 9): 27% | Biodegradation (%) ([1]; day 14): 48% | Biodegradation (%) ([1]; day 19): 53% | Biodegradation (%) ([1]; day 23): 53% | Biodegradation (%) ([1]; day 28): 55% | Biodegradation (%) ([1]; day 29 (first line)): 55% | Biodegradation (%) ([1]; day 29 (second line)): 57%

CCCCCCCCCCCC[N+](C)(C)Cc1ccccc1.[Cl-] [BAC-12 linear, benzalkonium chloride, C12]
MIC < 10% (Candida albicans): 0.0016 Weight percent | MIC < 50% (Candida albicans): 0.00078 Weight percent | MLC (Candida albicans): 0.0016 Weight percent | MIC < 10% (Staphylococcus aureus): 0.0002 Weight percent | MIC < 50% (Staphylococcus aureus): 0.0002 Weight percent | MLC (Staphylococcus aureus): 0.0002 Weight percent | MIC < 10% (Escherichia coli): 0.00078 Weight percent | MIC < 50% (Escherichia coli): 0.00078 Weight percent | MLC (Escherichia coli): 0.00078 Weight percent

Oc1cc(Cl)ccc1Oc1ccc(Cl)cc1Cl [Triclosan]
MIC < 10% (Candida albicans): 0.0016 Weight percent | MIC < 50% (Candida albicans): 0.0016 Weight percent | MLC (Candida albicans): >0.0016 Weight percent | MIC < 10% (Staphylococcus aureus): 0.00002 Weight percent | MIC < 50% (Staphylococcus aureus): 0.00002 Weight percent | MLC (Staphylococcus aureus): 0.00003 Weight percent | MIC < 10% (Escherichia coli): 0.00010 Weight percent | MIC < 50% (Escherichia coli): 0.00010 Weight percent | MLC (Escherichia coli): 0.00010 Weight percent

CCCCC(CC)CC(C)C=O (stereo not drawn) [Example 2, 4-ethyl-2-methyloctanal]
Biodegradation (%) ([1]; day 0): 0% | Biodegradation (%) ([1]; day 2): 0% | Biodegradation (%) ([1]; day 6): 15% | Biodegradation (%) ([1]; day 7): 21% | Biodegradation (%) ([1]; day 9): 31% | Biodegradation (%) ([1]; day 14): 47% | Biodegradation (%) ([1]; day 19): 54% | Biodegradation (%) ([1]; day 23): 56% | Biodegradation (%) ([1]; day 28): 57% | Biodegradation (%) ([1]; day 29 (first line)): 57% | Biodegradation (%) ([1]; day 29 (second line)): 61%

CC(=O)[O-].[Na+] [sodium acetate]
Biodegradation (%) ([1]; day 0): 0% | Biodegradation (%) ([1]; day 2): 32% | Biodegradation (%) ([1]; day 6): 52% | Biodegradation (%) ([1]; day 7): 54% | Biodegradation (%) ([1]; day 9): 60% | Biodegradation (%) ([1]; day 14): 66% | Biodegradation (%) ([1]; day 19): 69% | Biodegradation (%) ([1]; day 23): 71% | Biodegradation (%) ([1]; day 28): 72% | Biodegradation (%) ([1]; day 29 (first line)): 74% | Biodegradation (%) ([1]; day 29 (second line)): 78%
